Data reported in EP0127426A1, “Percutaneous pharmaceutical compositions for external use” (Takeda Chemical Industries, Ltd., priority 1983, dated 1984).
Like-named read-outs stand apart in the source and are kept apart here.

How the values were obtained:
[1] = rat, in vivo
Experimental: (§1) SD-JCL male rats with an average body weight of 250 g were used as test animals. Under pentobarbital anesthesia, the abdomen of each animal was clipped off hairs (20 cm^2: 5 x 4 cm) with an electric clipper and the sample was applied to the denuded area. Using 5 rats, 0.12 ml of venous blood was taken from the tail vein 1, 2, 4 and 6 hours after application of the sample. Each blood specimen was centrifuged and 0.05 ml of the plasma was put in a polyethylene minivial containing 5 ml of a toluenic scintillator and stirred. After standing, the total radioactivity of the plasma sample was measured with a β-ray scintillation spectrometer and the TRH equivalent concentration of the plasma (µg.eq./ml) was calculated.
(§2) The percutaneous absorption of TRH tartrate was evaluated in AUC6 (the area under the blood concentration-time curve during 0 to 6 hours).

in vivo = conditions: male, SD-JCL, rat, topical or ocular
[2] = Percutaneous absorption test in rats, TRH equivalent plasma concentration from total radioactivity (3H-labeled TRH); type: in vivo, SD-JCL male rats; conditions: additive in propylene glycol preparation of TRH tartrate (Comparative Example 2)
Experimental: as §1, §2

[3] = rat, in vivo; remark: listed apart in the source
Experimental: 3 mg of clonidine, an antihypertensive drug, was dissolved in a mixture of 20 mg of lauric acid, one of the percutaneous absorption promoting agents according to this invention, and 177 mg of propylene glycol to prepare a coating sample.
A percutaneous absorption test was carried out in male SD-JCL rats with an average body weight of 250 g. Under pentobarbital anesthesia, the abdomen of each rat was clipped of hairs with an electric clipper and the sample was coated on the denuded abdominal area (5 x 4 cm).
The collected venous blood was centrifuged and 0.2 ml of the plasma was extracted with 1 ml of 0.01 N-NaOH and 5 ml of chloroform. From a 4 ml portion of the chloroform layer, the chloroform was distilled off and the residue was dissolved by addition of 0.2ml of 0.05 M sodium acetate-acetonitrile-tetrahydrofuran (70:30:0.2, v/v). A 50 µl portion of the solution was applied to a liquid chromatograph to determine the concentration of clonidine. The µ-Bondapak Cl8 column was used for this liquid chromatography. The percutaneous absorption of clonidine was evaluated in terms of AUC6 (area under the blood concentration-time curve of clonidine during 0 to 6 hours) and its multiple over the [formula] of the preparation of Comparative Example 1 was calculated.

[4] = Percutaneous absorption test in rats, TRH equivalent plasma concentration from total radioactivity (3H-labeled TRH)

Molecule: NC(=O)C1CCCN1C(=O)C(Cc1c[nH]cn1)NC(=O)C1CCC(=O)O1 [DN-1417, y-butyrolactone-y-carbonyl-L-histidyl-L-prolinamide]
- AUC6 (the area under the blood concentration-time curve during 0 to 6 hours) [1]: 0.3 ug.eq.hr/ml

Molecule: CCNC(=O)[C@@H]1CCCN1C(=O)[C@H](CCCNC(=N)N)NC(=O)[C@H](CC(C)C)NC(=O)[C@@H](CC(C)C)NC(=O)[C@H](Cc1ccc(O)cc1)NC(=O)[C@H](CO)NC(=O)[C@H](Cc1c[nH]c2ccccc12)NC(=O)[C@H](Cc1c[nH]cn1)NC(=O)[C@@H]1CCC(=O)N1 [TAP-144]
- AUC(0-t) (in vivo): 0.5 ng·h/mL

Molecule: CCCCCCCCCCCCCC(=O)OC(C)C [isopropyl myristate]
- absorption promoting effect of the additive [2]: no absorption promoting effect

Molecule: CCCCCCCCCCCC(=O)O [lauric acid]
- effectiveness of the percutaneous absorption promoting agent for clonidine [3]: ineffective

Molecule: CCCCCCCCCCCCN [laurylamine]
- effectiveness of the percutaneous absorption promoting agent for clonidine [3]: ineffective

Molecule: CCCCCCCC/C=C\CCCCCCCC(N)=O [oleamide]
- effectiveness of the percutaneous absorption promoting agent for clonidine [3]: ineffective

Molecule: CCCCCCCC/C=C\CCCCCCCC(=O)O [oleic acid]
- effectiveness of the percutaneous absorption promoting agent for clonidine [3]: ineffective

Molecule: L-pyroglutamyl-L-histidyl-L-prolinamide [TRH tartrate]
- AUC6 (the area under the blood concentration-time curve during 0 to 6 hours) ([4]; Comparative Example 1 (TRH tartrate in propylene glycol, no absorption promoter), restated in Example 5): 0.16 ug.eq.hr/ml
- AUC6 (the area under the blood concentration-time curve during 0 to 6 hours) ([4]; Comparative Example 6: 0.8 mg TRH tartrate in 179.2 mg propylene glycol + 20 mg caprylyl alcohol (C8)): 0.19 pg.eq/ml
- multiple of the AUC6 value over the control preparation of Comparative Example 1 ([4]; Example 1 preparation (20 mg oleic acid) vs Comparative Example 1 (no absorption promoter)): approximately 8 times
- multiple of the AUC6 value over the control preparation of Comparative Example 1 ([4]; Example 3 (20 mg lauric acid, ethanol wiping) vs Comparative Example 1): 14 times
- AUC6 (the area under the blood concentration-time curve during 0 to 6 hours) ([4]; Example 3: 0.8 mg TRH tartrate in 179.2 mg propylene glycol + 20 mg lauric acid, site wiped 5 times with ethanol-sanitary cotton before application): 2.22 µg.eq.hr/ml
- multiple of the AUC6 value over the control preparation of Comparative Example 1 ([4]; Example 4 (20 mg lauric acid, horny layer stripped) vs Comparative Example 1): 38 times
- AUC6 (the area under the blood concentration-time curve during 0 to 6 hours) ([4]; Example 4: 0.8 mg TRH tartrate in 179.2 mg propylene glycol + 20 mg lauric acid, horny layer stripped 3 times with cellophane tape before application): 6.06 ug.eq.hr/ml

Molecule: L-pyroglutamyl-L-histidyl-L-prolinamide [TRH]
- multiple of the AUC6 value over Comparative Example 1 ([4]; Example 5 (TRH, 30 mg oleic acid) vs Comparative Example 1): 8.7 times
- AUC6 (the area under the blood concentration-time curve during 0 to 6 hours) ([4]; Example 5: 0.5 mg TRH in 169.5 mg propylene glycol + 30 mg oleic acid): 1.4 µg.eq.hr/ml
